In ChEMBL document CHEMBL2040720, “Potent CXCR4 antagonists containing amidine type Peptide bond isosteres” (ACS Med Chem Lett, 2011):
Active and inactive are the calls of the source. No cut-off for these calls is given here.

Key:
[1] = biological target: Atypical chemokine receptor 3 (Homo sapiens) (UniProt P25106); experiment: Inhibition of CXCR7 interaction with SDF1alpha
[2] = system: Human immunodeficiency virus 1; experiment: Antiviral activity against Human immunodeficiency virus 1 NL4.3 infected in human HeLa cells assessed as inhibition of viral replication after 48 hrs by MAGI assay; type: functional, organism-based; conditions: Human immunodeficiency virus 1, NL4.3, HeLa
[3] = system: Human immunodeficiency virus 1; experiment: Antiviral activity against Human immunodeficiency virus 1 3B infected in human HeLa cells assessed as inhibition of viral replication after 48 hrs by MAGI assay; type: functional, organism-based
[4] = system: Human immunodeficiency virus 1; experiment: Antiviral activity against CCR5-tropic Human immunodeficiency virus 1 Ba-L infected in human HeLa cells assessed as inhibition of viral replication at 10 uM after 48 hrs by MAGI assay; type: functional, organism-based
[5] = biological target: C-X-C chemokine receptor type 4 (Homo sapiens, UniProt P61073); experiment: Displacement of [125I]-SDF-1alpha from CXCR4 receptor expressed in HEK293 cells after 1 hr by scintillation counting; type: cell-based
HeLa = experiment: Cytotoxicity against human HeLa cells at 10 uM by MAGI assay; type: cell-based

Chain of Atypical chemokine receptor 3 (Homo sapiens) (P25106 whole entry): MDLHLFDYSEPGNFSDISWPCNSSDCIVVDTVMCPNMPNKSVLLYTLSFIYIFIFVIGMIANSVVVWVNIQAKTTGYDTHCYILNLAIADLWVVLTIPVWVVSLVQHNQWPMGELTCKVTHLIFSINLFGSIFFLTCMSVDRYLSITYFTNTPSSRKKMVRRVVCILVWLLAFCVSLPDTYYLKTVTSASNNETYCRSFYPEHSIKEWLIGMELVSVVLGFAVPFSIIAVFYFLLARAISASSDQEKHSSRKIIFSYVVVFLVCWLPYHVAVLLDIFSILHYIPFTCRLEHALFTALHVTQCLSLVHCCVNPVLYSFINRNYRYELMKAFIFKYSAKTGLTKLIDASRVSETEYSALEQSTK
Chain of C-X-C chemokine receptor type 4 (P61073 whole entry): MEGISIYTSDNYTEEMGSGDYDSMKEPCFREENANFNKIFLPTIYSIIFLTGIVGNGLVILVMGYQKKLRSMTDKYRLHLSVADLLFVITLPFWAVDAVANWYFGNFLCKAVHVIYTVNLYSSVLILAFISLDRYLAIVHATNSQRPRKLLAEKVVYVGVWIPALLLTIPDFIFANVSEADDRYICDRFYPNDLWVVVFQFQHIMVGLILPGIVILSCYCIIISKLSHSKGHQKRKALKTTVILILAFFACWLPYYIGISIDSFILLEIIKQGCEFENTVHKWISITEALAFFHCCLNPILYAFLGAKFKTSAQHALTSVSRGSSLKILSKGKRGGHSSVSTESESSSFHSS

Compound | inhibition [1] | EC50 [2] | EC50 [3] | IC50 [5] | Activity [4] | Activity (HeLa)
N=C(N)NCCC[C@@H]1NC(=O)[C@H](CCCNC(=N)N)NC(=O)[C@@H](Cc2ccc(O)cc2)NC(=O)CNC(=N)[C@@H](Cc2ccc3ccccc3c2)NC1=O | inactive | 2.2 nM | 2 nM |  | inactive | 
N=C(N)NCCC[C@@H]1NC(=N)[C@H](Cc2ccc(O)cc2)NC(=O)CNC(=O)[C@H](Cc2ccc3ccccc3c2)NC(=O)[C@H](CCCNC(=N)N)NC1=O | inactive | 248 nM | 238 nM |  | inactive | 
CN1C(=O)[C@@H](Cc2ccc(O)cc2)NC(=O)CNC(=O)[C@H](Cc2ccc3ccccc3c2)NC(=O)[C@H](CCCNC(=N)N)NC(=O)[C@H]1CCCNC(=N)N |  | 7.6 nM | 7.6 nM |  | inactive | 
N=C(N)NCCC[C@@H]1NC(=O)[C@H](CCCNC(=N)N)NC(=O)[C@@H](Cc2ccc(O)cc2)NC(=O)CNC(=N)[C@H](Cc2ccc3ccccc3c2)NC1=O | inactive | 1.4 nM | 1 nM | 4.2 nM | inactive | Non-toxic
N=C(N)NCCC[C@@H]1NC(=O)[C@H](CCCNC(=N)N)NC(=O)[C@@H](Cc2ccc(O)cc2)NC(=N)CNC(=O)[C@H](Cc2ccc3ccccc3c2)NC1=O | inactive | 1.3 nM | 0.61 nM |  | inactive | 
N=C(N)NCCC[C@@H]1NC(=N)[C@@H](Cc2ccc(O)cc2)NC(=O)CNC(=O)[C@H](Cc2ccc3ccccc3c2)NC(=O)[C@H](CCCNC(=N)N)NC1=O | inactive | 300 nM | 258 nM |  | inactive | 

Second part, led by results:

inhibition [1] | EC50 [2] | EC50 [3] | IC50 [5] | Compound | Activity [4] | Activity (HeLa)
 |  |  | 16 nM | NC(N)=NCCC[C@@H]1N=C(N)[C@H](CCCN=C(N)N)NC(=O)[C@@H](Cc2ccc(O)cc2)NC(=O)CNC(=O)[C@H](Cc2ccc3ccccc3c2)NC1=O |  | Non-toxic
 |  |  | 679 nM | NC(N)=NCCC[C@@H]1N=C(N)[C@@H](Cc2ccc(O)cc2)NC(=O)CNC(=O)[C@H](Cc2ccc3ccccc3c2)NC(=O)[C@H](CCCN=C(N)N)NC1=O |  | Non-toxic
 | 21 nM | 21 nM |  | N=C(N)NCCC[C@@H]1NC(=O)[C@H](CCCNC(=N)N)NC(=O)[C@@H](Cc2ccc(O)cc2)NC(=O)CNC(=O)[C@H](Cc2ccc3ccccc3c2)NC1=O | inactive | 
 |  |  | 37 nM | CN1C(=O)[C@@H](Cc2ccc(O)cc2)NC(=O)CNC(=O)[C@H](Cc2ccc3ccccc3c2)NC(=O)[C@H](CCCN=C(N)N)NC(=O)[C@H]1CCCN=C(N)N |  | 
 |  |  | 334 nM | NC(N)=NCCC[C@@H]1N=C(N)[C@H](Cc2ccc(O)cc2)NC(=O)CNC(=O)[C@H](Cc2ccc3ccccc3c2)NC(=O)[C@H](CCCN=C(N)N)NC1=O |  | Non-toxic
 |  |  | 9.4 nM | NC(N)=NCCC[C@@H]1NC(=O)[C@H](CCCN=C(N)N)NC(=O)[C@@H](Cc2ccc(O)cc2)N=C(N)CNC(=O)[C@H](Cc2ccc3ccccc3c2)NC1=O |  | Non-toxic
 |  |  | 11 nM | NC(N)=NCCC[C@@H]1NC(=O)[C@@H](Cc2ccc(O)cc2)NC(=O)CNC(=O)[C@H](Cc2ccc3ccccc3c2)N=C(N)[C@H](CCCN=C(N)N)NC1=O |  | Non-toxic
inactive | 1.9 nM | 1.2 nM |  | N=C(N)NCCC[C@@H]1NC(=O)[C@@H](Cc2ccc(O)cc2)NC(=O)CNC(=O)[C@H](Cc2ccc3ccccc3c2)NC(=O)[C@H](CCCNC(=N)N)NC1=N | inactive | 
 |  |  | 4.9 nM | NC(N)=NCCC[C@@H]1NC(=O)[C@H](CCCN=C(N)N)NC(=O)[C@@H](Cc2ccc(O)cc2)NC(=O)CN=C(N)[C@@H](Cc2ccc3ccccc3c2)NC1=O |  | Non-toxic
inactive | 4.4 nM | 6.3 nM |  | N=C(N)NCCC[C@@H]1NC(=O)[C@H](CCCNC(=N)N)NC(=O)[C@@H](Cc2ccc(O)cc2)NC(=O)CNC(=O)[C@H](Cc2ccc3ccccc3c2)NC1=N | inactive | 
